Results from patent US10934274B2, “Quinoline derivatives as TAM RTK inhibitors” (Qurient Co., Ltd., priority 2015, dated 2021).

Assays:
[1] = biological target: T1, Mer (Homo sapiens, UniProt Q12866); assay: LanthaScreen Eu kinase binding assay, Mer; conditions: Tracer 236
T1 construct: purchased Life Technologies
T1 sequence (Q12866 21-999): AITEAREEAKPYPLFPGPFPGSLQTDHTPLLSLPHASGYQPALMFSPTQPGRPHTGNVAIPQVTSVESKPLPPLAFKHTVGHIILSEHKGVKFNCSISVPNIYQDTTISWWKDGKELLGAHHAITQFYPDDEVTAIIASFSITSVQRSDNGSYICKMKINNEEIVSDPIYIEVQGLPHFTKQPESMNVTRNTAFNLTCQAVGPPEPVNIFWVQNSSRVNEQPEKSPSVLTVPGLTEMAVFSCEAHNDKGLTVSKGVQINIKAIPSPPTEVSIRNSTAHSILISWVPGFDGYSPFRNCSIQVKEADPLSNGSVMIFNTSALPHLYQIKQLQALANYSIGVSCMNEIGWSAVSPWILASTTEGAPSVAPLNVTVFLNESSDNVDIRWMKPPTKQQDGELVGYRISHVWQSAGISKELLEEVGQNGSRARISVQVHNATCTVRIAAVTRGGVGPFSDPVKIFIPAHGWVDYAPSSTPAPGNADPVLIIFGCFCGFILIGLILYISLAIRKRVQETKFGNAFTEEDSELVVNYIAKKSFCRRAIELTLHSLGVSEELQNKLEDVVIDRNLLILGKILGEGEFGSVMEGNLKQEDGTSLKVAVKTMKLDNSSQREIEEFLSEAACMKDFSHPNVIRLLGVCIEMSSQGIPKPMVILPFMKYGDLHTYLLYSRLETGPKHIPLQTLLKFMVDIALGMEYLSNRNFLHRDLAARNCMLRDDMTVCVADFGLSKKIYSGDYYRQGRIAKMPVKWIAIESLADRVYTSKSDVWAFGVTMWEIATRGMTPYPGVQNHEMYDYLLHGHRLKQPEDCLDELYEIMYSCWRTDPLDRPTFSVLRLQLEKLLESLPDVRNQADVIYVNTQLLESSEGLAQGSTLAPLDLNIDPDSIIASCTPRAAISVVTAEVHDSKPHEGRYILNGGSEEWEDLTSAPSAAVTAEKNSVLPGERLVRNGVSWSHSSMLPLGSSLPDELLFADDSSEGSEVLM

[2] = biological target: T2, Met (Homo sapiens, UniProt P08581); assay: LanthaScreen Eu kinase binding assay, Met; conditions: Tracer 236, read-out: cMet kinase binding activity (Kd)
T2 construct: purchased Life Technologies

[3] = system: Axl phosphorylation in transiently transfected HEK293T cells; assay: Cellular Axl phosphorylation assay; assay type: cell-based; conditions: Homo sapiens, HEK-293T; HEK293T cells transfected with Axl, 1 hour compound treatment, Phospho-Axl vs Total-Axl
Outline: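 Axl-RTK was overexpressed by transfection in HEK293T cells to drive trans-autophosphorylation; cells were exposed to test compound for 1 hour. Phospho-Axl and total Axl were captured in lysates and detected by MSD electrochemiluminescence. IC50 was set between the DMSO group and the empty-vector-transfected minimum.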

[4] = system: HCC827/ER cells; assay: WST-1 cell viability assay in erlotinib-resistant cells; conditions: compound combined with Erlotinib at constant 1:1 ratio, 3 days, FBS 1%
Description: The killed cells were discarded and the remaining cells were cultured in a drug-free medium up to 80% confluence. Subsequently, cells were continuously exposed to increasing drug doses of up to 10 μM over a period of 8 months.
HCC827/ER cells were seeded in a 96-well plate with their respective media containing 10% FBS at 5000 cells/well. After seeding, the HCC827/ER cells were incubated for approximately 24 hours. […] The viability of the HCC827/ER cells was determined by adding WST-1 reagent according to Manufacturer's instructions (DoGenbio co., Ltd) and incubating for four hours. The plates were then read using an absorbance of 440 nm on Tecan Microplate reader (Infinite M200 pro, TECAN). The HCC827/ER cells' viability were calculated relative to vehicle (DMSO) control wells.

T2 sequence (P08581 25-1390): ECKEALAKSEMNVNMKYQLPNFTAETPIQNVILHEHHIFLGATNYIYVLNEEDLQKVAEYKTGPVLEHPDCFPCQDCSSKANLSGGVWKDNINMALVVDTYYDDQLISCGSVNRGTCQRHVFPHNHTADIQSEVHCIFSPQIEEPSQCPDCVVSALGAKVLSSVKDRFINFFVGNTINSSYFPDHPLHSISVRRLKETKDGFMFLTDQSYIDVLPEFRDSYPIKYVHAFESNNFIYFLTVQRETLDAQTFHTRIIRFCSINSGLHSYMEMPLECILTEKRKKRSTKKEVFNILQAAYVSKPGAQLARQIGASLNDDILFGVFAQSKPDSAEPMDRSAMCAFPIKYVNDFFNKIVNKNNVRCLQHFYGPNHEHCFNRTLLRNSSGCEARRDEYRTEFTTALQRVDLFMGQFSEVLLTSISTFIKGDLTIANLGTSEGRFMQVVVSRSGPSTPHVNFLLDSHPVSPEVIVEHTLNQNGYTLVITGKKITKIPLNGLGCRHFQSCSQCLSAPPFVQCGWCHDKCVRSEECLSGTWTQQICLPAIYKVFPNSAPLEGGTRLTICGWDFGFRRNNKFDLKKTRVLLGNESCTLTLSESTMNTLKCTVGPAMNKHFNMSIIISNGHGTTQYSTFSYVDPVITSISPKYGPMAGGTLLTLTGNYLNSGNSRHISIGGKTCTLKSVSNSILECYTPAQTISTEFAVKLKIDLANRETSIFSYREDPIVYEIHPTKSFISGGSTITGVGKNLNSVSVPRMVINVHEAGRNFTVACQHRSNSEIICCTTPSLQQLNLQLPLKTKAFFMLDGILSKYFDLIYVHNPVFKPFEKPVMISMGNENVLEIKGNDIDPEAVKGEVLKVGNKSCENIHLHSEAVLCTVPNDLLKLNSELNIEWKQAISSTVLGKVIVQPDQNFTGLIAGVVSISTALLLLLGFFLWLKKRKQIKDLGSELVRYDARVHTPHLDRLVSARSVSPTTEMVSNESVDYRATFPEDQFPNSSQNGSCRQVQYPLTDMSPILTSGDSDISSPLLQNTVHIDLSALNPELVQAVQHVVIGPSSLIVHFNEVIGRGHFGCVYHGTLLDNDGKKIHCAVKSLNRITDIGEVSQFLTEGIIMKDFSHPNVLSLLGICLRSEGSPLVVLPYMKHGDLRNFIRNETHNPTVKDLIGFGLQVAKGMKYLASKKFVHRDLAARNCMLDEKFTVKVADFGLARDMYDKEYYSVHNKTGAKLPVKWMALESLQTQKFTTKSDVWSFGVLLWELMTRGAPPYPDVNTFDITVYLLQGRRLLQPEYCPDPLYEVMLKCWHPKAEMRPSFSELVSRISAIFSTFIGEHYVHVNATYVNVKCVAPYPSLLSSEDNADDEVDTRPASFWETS

| Structure (SMILES) | Kd [1] [µM] | Kd [2] [µM] | IC50 [3] [µM] | Combination effect of compound and erlotinib on inhibition activity in Erlotinib-resistant cell-line [4] |
| --- | --- | --- | --- | --- |
| COc1cc2nccc(Oc3ccc(NC(=O)c4nn(-c5cccnc5)cc4OCC4CC4)nc3)c2cc1OC(F)(F)F [Compound 239] | 0.1 to 1 | 0.1 to 1 | < 0.1 |  |
| CCOc1cn(-c2cnc(N)nc2)nc1C(=O)Nc1ccc(Oc2ccnc3cc(OC)c(OC(F)(F)F)cc23)cc1F [Compound 242] | ≥ 1 | ≥ 1 | 0.1 to 1 |  |
| COc1cc2nccc(Oc3ccc(NC(=O)c4nn(-c5cnc(N)nc5)cc4OC(C)C)nc3)c2cc1OC [Compound 260] | < 0.1 | < 0.1 | < 0.1 |  |
| COc1cc2nccc(Oc3ccc(NC(=O)c4nn(-c5cncnc5C5CC5)cc4OCC(F)(F)F)nc3)c2cc1OC [Compound 261] | < 0.1 | < 0.1 | < 0.1 |  |
| COc1cc2nccc(Oc3ccc(NC(=O)c4nn(-c5cnc(N)nc5)cc4OCC4CCC4)nc3)c2cc1OC [Compound 262] | < 0.1 | < 0.1 | < 0.1 |  |
| COc1cc2nccc(Oc3ccc(NC(=O)c4nn(-c5ccc(F)cc5Cl)cc4OCC4CC4)nc3)c2cc1OC [Compound 263] | < 0.1 | < 0.1 | < 0.1 |  |
| COc1cc2nccc(Oc3ccc(NC(=O)c4nn(-c5ccc(F)cc5OC)cc4OCC4CC4)nc3)c2cc1OC [Compound 264] | < 0.1 | < 0.1 | < 0.1 |  |
| COc1cc2nccc(Oc3ccc(NC(=O)c4nn(-c5cnc(N)nc5)cc4OCC4CNC4)nc3)c2cc1OC [Compound 265] | ≥ 1 | ≥ 1 | ≥ 1 |  |
| COc1cc2nccc(Oc3ccc(NC(=O)c4nn(-c5ccc(F)cc5N5CCOCC5)cc4OCC4CC4)nc3)c2cc1OC [Compound 266] | < 0.1 | < 0.1 | < 0.1 |  |
| COc1cc2nccc(Oc3ccc(NC(=O)c4nn(-c5ccc(F)cc5F)cc4OCC4CC4)nc3)c2cc1OC [Compound 267] | < 0.1 | < 0.1 | < 0.1 |  |
| COc1cc2nccc(Oc3ccc(NC(=O)c4nn(-c5ccc(F)cc5F)cc4OCC(F)(F)F)nc3)c2cc1OC [Compound 268] | < 0.1 | < 0.1 | < 0.1 |  |
| COc1cc2nccc(Oc3ccc(NC(=O)c4nn(-c5cnc(N)nc5)cc4OCC4COC4)nc3)c2cc1OC [Compound 269] | < 0.1 | 0.1 to 1 | < 0.1 |  |
| COc1cc2nccc(Oc3ccc(NC(=O)c4nn(-c5ccc(F)cc5C5CCCC5)cc4OCC4CC4)nc3)c2cc1OC [Compound 270] | 0.1 to 1 | 0.1 to 1 | < 0.1 |  |
| COc1cc2nccc(Oc3ccc(NC(=O)c4nn(-c5ccc(F)cc5Oc5ccccc5)cc4OCC4CC4)nc3)c2cc1OC [Compound 272] | < 0.1 | 0.1 to 1 | < 0.1 |  |
| COc1cc2nccc(Oc3ccc(NC(=O)c4nn(-c5ccc(F)cc5C(C)=O)cc4OCC4CC4)nc3)c2cc1OC [Compound 273] | < 0.1 | 0.1 to 1 | < 0.1 |  |
| COc1cc2nccc(Oc3ccc(NC(=O)c4nn(-c5ccc(F)c(C(C)=O)c5)cc4OCC4CC4)nc3)c2cc1OC [Compound 274] | < 0.1 | < 0.1 | < 0.1 |  |

Now from value to molecule, other results behind:

| Kd [1] [µM] | Kd [2] [µM] | Structure (SMILES) | IC50 [3] [µM] | Combination effect of compound and erlotinib on inhibition activity in Erlotinib-resistant cell-line [4] |
| --- | --- | --- | --- | --- |
| < 0.1 | < 0.1 | CCOc1cn(CCOC(F)(F)F)nc1C(=O)Nc1ccc(Oc2ccnc3cc(OC)c(OC)cc23)cn1 [Compound 38] | < 0.1 | synergistic effect |
| < 0.1 | ≥ 1 | CCOc1cn(-c2cnccc2CO)nc1C(=O)Nc1ccc(Oc2ccnc3cc(OC)c(OC(F)(F)F)cc23)cn1 [Compound 233] | < 0.1 |  |
| < 0.1 | 0.1 to 1 | CCC(C)Oc1cc2nccc(Oc3ccc(NC(=O)c4nn(-c5cccnc5)cc4OCC(F)(F)F)nc3)c2cc1OC (stereo not shown) [Compound 234] | < 0.1 |  |
| < 0.1 | < 0.1 | COc1cc2nccc(Oc3ccc(NC(=O)c4nn(-c5cnc(Cl)cn5)cc4OCC(F)(F)F)nc3)c2cc1OC [Compound 236] | < 0.1 |  |
| < 0.1 | < 0.1 | COc1cc2nccc(Oc3ccc(NC(=O)c4nn(-c5cnc(N)nc5)cc4OCC(F)(F)F)nc3)c2cc1OC [Compound 237] | < 0.1 |  |
| < 0.1 | < 0.1 | COc1cc2nccc(Oc3ccc(NC(=O)c4nn(-c5cnc(N)nc5)cc4OCC4CC4)nc3)c2cc1OC [Compound 240] | < 0.1 |  |
| < 0.1 | ≥ 1 | CCOc1cn(-c2cnc(N)nc2)nc1C(=O)Nc1ccc(Oc2ccnc3cc(OC)c(OC(F)(F)F)cc23)cn1 [Compound 241] | < 0.1 |  |
| < 0.1 | < 0.1 | COc1cc2c(Oc3ccc(NC(=O)c4nn(-c5cnc(N)nc5)cc4OCC(F)(F)F)c(F)c3)ccnc2cc1OC(C)C [Compound 243] | < 0.1 |  |
| < 0.1 | < 0.1 | COc1cc2nccc(Oc3ccc(NC(=O)c4nn(-c5ccc(OC(F)(F)F)cc5Cl)cc4OCC4CC4)nc3)c2cc1OC [Compound 244] | < 0.1 |  |
| < 0.1 | ≥ 1 | COc1cc2c(Oc3ccc(NC(=O)c4nn(-c5cnc(N)cn5)cc4OCC(F)(F)F)c(F)c3)ccnc2cc1OC(C)C [Compound 246] | < 0.1 |  |
| < 0.1 | < 0.1 | COc1cc2nccc(Oc3ccc(NC(=O)c4nn(-c5cnccc5C(F)(F)F)cc4OCC4CC4)nc3)c2cc1OC [Compound 247] | < 0.1 |  |
| < 0.1 | < 0.1 | COc1cc2nccc(Oc3ccc(NC(=O)c4nn(-c5cnc(N)cn5)cc4OCC(F)(F)F)nc3)c2cc1OC [Compound 248] | < 0.1 |  |
| < 0.1 | < 0.1 | COc1cc2nccc(Oc3ccc(NC(=O)c4nn(-c5cnc(N)cn5)cc4OCC4CC4)nc3)c2cc1OC [Compound 249] | < 0.1 |  |
| < 0.1 | ≥ 1 | COc1cc2nccc(Oc3ccc(NC(=O)c4nn(-c5cnc(N)cn5)cc4OCC(F)(F)F)c(F)c3)c2cc1OC [Compound 252] | < 0.1 |  |
| < 0.1 | < 0.1 | COc1cc2c(Oc3ccc(NC(=O)c4nn(-c5cnc(N)cn5)cc4OCC(F)(F)F)nc3)ccnc2cc1OC(C)C [Compound 253] | < 0.1 |  |
| < 0.1 | ≥ 1 | COc1cc2nccc(Oc3ccc(NC(=O)c4nn(-c5cnc(N)nc5)cc4OC(F)F)nc3)c2cc1OC [Compound 254] | < 0.1 |  |
| < 0.1 | < 0.1 | COc1cc2nccc(Oc3ccc(NC(=O)c4nn(-c5cccnc5)cc4OCC4CC4)nc3)c2cc1OC [Compound 255] | < 0.1 |  |
| < 0.1 | < 0.1 | COc1cc2c(Oc3ccc(NC(=O)c4nn(-c5cnc(N)nc5)cc4OCC(F)(F)F)nc3)ccnc2cc1OC(C)C [Compound 257] | < 0.1 |  |
| < 0.1 | < 0.1 | COc1cc2nccc(Oc3ccc(NC(=O)c4nn(-c5ccc(F)cc5C)cc4OCC4CC4)nc3)c2cc1OC [Compound 258] | < 0.1 |  |
| < 0.1 | < 0.1 | COc1cc2nccc(Oc3ccc(NC(=O)c4nn(-c5cnc(N)nc5)cc4OCC(F)(F)F)c(F)c3)c2cc1OC [Compound 259] | < 0.1 |  |
